In PubChem BioAssay AID540315 (Broad Institute, 2011):
Active and inactive are the calls of the source.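 How the source made its calls: active means compounds lowering cell viability whose fitted half-effect dose is at most ten times the top tested dose; inconclusive means flat curve with moderate viability loss, or a poor fit; inactive means the rest.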

Legend:
[1] = system: DRD HRASV12-transformed BJ fibroblasts viability, Alamar Blue, 48 h; assay: growth inhibition of HRAS-transformed DRD cells – cell-based, secondary screen, plate reader, dry powder, set 4, dose response (AID 540315)
[2] = as above; details: DRD HRASV12-transformed BJ fibroblasts viability, Alamar Blue, 48 h; at 48 µM (top of the series)

Row | SMILES | AC50 [1] | activity change, negative = viability loss [2]
1 | COc1ccc(C(c2ccc(OC)cc2)N2CCN(C(=O)c3noc(C)c3[N+](=O)[O-])CC2)cc1 | 4.37 µM | –
2 | O=C(c1ccc([N+](=O)[O-])o1)N1CCN(C(c2ccc(F)cc2)c2ccc(F)cc2)CC1 | 10.7 µM | –
3 | Cc1onc(C(=O)N2CCCN(C(c3ccccc3)c3ccccc3)CC2)c1[N+](=O)[O-] | 3.87 µM | –
4 | Cc1onc(C(=O)N2CCN(C(c3ccccc3)c3ccccc3)CC2)c1[N+](=O)[O-] | 2.64 µM | –
5 | Cc1onc(C(=O)N2CCN(Cc3ccccc3)CC2)c1[N+](=O)[O-] | – | -2.4% (inactive)
6 | COC(=O)c1ccc([C@@H]2c3[nH]c4ccccc4c3C[C@@H](C(=O)OC)N2C(=O)CCl)cc1 | 0.604 µM | –
7 | CCOc1ccccc1-n1c(C(C)N2CCN(C(=O)COc3ccc(Cl)cc3)CC2)nc2ccccc2c1=O (centres undefined) | 2.16 µM | –
8 | COc1ccc(C(c2ccc(OC)cc2)N2CCN(C(=O)c3ccc([N+](=O)[O-])o3)CC2)cc1 | 5.84 µM | –
9 | O=C(NCCNC(c1ccccc1)c1ccccc1)c1ccc([N+](=O)[O-])o1 | 5.59 µM | –
10 | Cc1onc(C(=O)N2CCN(C(c3ccc(F)cc3)c3ccc(F)cc3)CC2)c1[N+](=O)[O-] | 0.784 µM | –
11 | Cc1onc(C(=O)NCCNC(c2ccccc2)c2ccccc2)c1[N+](=O)[O-] | 43.8 µM | –
12 | Cc1onc(C(=O)N2CCN(C(c3ccccc3)c3ccc(Cl)cc3)CC2)c1[N+](=O)[O-] (centres undefined) | 0.585 µM | –
13 | Cc1onc(CC(=O)N2CCN(C(c3ccc(F)cc3)c3ccc(F)cc3)CC2)c1[N+](=O)[O-] | 30.9 µM | –
14 | Cc1onc(C(=O)N2CCN(C(c3ccc(Cl)cc3)c3ccc(Cl)cc3)CC2)c1[N+](=O)[O-] | 0.287 µM | –
